Results taken from PubChem BioAssay AID330 (DTP/NCI, 2004).
Where “and” joins values, the source holds several entries; their conditions need not be identical. Equal entries are not always repeated. Toxic doses and inconclusive results are not listed.

Test system: P388 leukemia ip, CD2F1 mice, survival T/C
Experiment: NCI In Vivo Anticancer Drug Screen. Data for tumor model P388 Leukemia (intraperitoneal) in CD2F1 (CDF1) mice
Conditions: endpoint: median survival time, higher = longer survival
Procedure, shortened: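 Mice carrying the transplanted tumor received test compound or vehicle. Survival was recorded in each group, and the value is the treated-group measurement divided by that of the vehicle-treated control group.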

[1] = dose: 50.0 mg/kg/injection, schedule: Q01DX005 (ip), vehicle: Klucel (hydroxypropylcellulose) (HPC)
[2] = dose: 100.0 mg/kg/injection, schedule: Q01DX005 (ip), vehicle: Klucel (hydroxypropylcellulose) (HPC)
[3] = dose: 200.0 mg/kg/injection, schedule: Q01DX005 (ip), vehicle: Klucel (hydroxypropylcellulose) (HPC)
[4] = dose: 30.0 mg/kg/injection, schedule: Q01DX005 (ip), vehicle: saline
[5] = dose: 60.0 mg/kg/injection, schedule: Q01DX005 (ip), vehicle: saline

## O=[N+]([O-])c1nccn1CC(O)CF (stereo not given)
dose: 86.4 mg/kg/injection, schedule: Q01DX005 (ip), vehicle: saline + Tween-80 + alcohol
  T/C: 104 % of control
dose: 144.0 mg/kg/injection, schedule: Q01DX005 (ip), vehicle: saline + Tween-80 + alcohol
  T/C: 89 % of control
dose: 216.0 mg/kg/injection, schedule: Q01DX001 (ip), vehicle: saline + Tween-80 + alcohol
  T/C: 100 % of control
dose: 216.0 mg/kg/injection, schedule: Q01DX001 (ip), vehicle: saline with Tween-80
  T/C: 100 % of control
dose: 240.0 mg/kg/injection, schedule: Q01DX005 (ip), vehicle: saline + Tween-80 + alcohol
  T/C: 103 % of control
dose: 360.0 mg/kg/injection, schedule: Q01DX001 (ip), vehicle: saline + Tween-80 + alcohol
  T/C: 104 % of control
dose: 360.0 mg/kg/injection, schedule: Q01DX001 (ip), vehicle: saline with Tween-80
  T/C: 104 % of control
dose: 600.0 mg/kg/injection, schedule: Q01DX001 (ip), vehicle: saline + Tween-80 + alcohol
  T/C: 101 % of control
dose: 600.0 mg/kg/injection, schedule: Q01DX001 (ip), vehicle: saline with Tween-80
  T/C: 101 % of control

## Cc1nc(Nc2ccccc2)c2c(C)c(Cc3ccccc3)[nH]c2n1
[1]
  T/C: 89 % of control
[2]
  T/C: 86 % of control
[3]
  T/C: 87 % of control

## CCC1=C[C@@H]2C[C@](C(=O)OC)(c3cc4c(cc3OC)N(C)[C@H]3[C@@](O)(C(=O)NC)[C@H](OC(C)=O)[C@]5(CC)C=CCN6CC[C@]43[C@@H]65)c3[nH]c4ccccc4c3CCN(C1)[C@@H]2O
dose: 0.39 mg/kg/injection, schedule: Q01DX001 (ip), vehicle: water
  T/C: 123 % of control
dose: 1.56 mg/kg/injection, schedule: Q01DX001 (ip), vehicle: water
  T/C: 151 % of control
dose: 3.13 mg/kg/injection, schedule: Q01DX001 (ip), vehicle: water
  T/C: 152 % of control and 158 % of control

## O=C1c2ccccc2-c2ccc(N=Cc3c[nH]c4ccccc34)cc21
dose: 50.0 mg/kg/injection, schedule: Q01DX005 (ip), vehicle: saline + Tween-80 + alcohol
  T/C: 104 % of control
dose: 100.0 mg/kg/injection, schedule: Q01DX005 (ip), vehicle: saline + Tween-80 + alcohol
  T/C: 98 % of control
dose: 200.0 mg/kg/injection, schedule: Q01DX005 (ip), vehicle: saline + Tween-80 + alcohol
  T/C: 98 % of control

## CC(C)N=C(c1ccccc1)N1CCCCC1
dose: 12.5 mg/kg/injection, schedule: Q01DX009 (ip), vehicle: saline
  T/C: 98 % of control
dose: 25.0 mg/kg/injection, schedule: Q01DX009 (ip), vehicle: saline
  T/C: 100 % of control

## Cc1cc(N/N=C/c2ccccn2)c2cc3c(cc2n1)OCO3
dose: 12.5 mg/kg/injection, schedule: Q01DX005 (ip), vehicle: Klucel (hydroxypropylcellulose) (HPC)
  T/C: 103 % of control
dose: 25.0 mg/kg/injection, schedule: Q01DX005 (ip), vehicle: Klucel (hydroxypropylcellulose) (HPC)
  T/C: 104 % of control
[1]
  T/C: 101 % of control and 104 % of control

## O=C(NC(CCS(=O)(=O)n1ccnc1)C(=O)OCc1ccccc1)OCc1ccccc1 (stereo not given)
dose: 12.5 mg/kg/injection, schedule: Q01DX009 (ip), vehicle: other
  T/C: 97 % of control
dose: 25.0 mg/kg/injection, schedule: Q01DX009 (ip), vehicle: other
  T/C: 104 % of control
dose: 50.0 mg/kg/injection, schedule: Q01DX009 (ip), vehicle: other
  T/C: 106 % of control
dose: 100.0 mg/kg/injection, schedule: Q01DX009 (ip), vehicle: other
  T/C: 97 % of control
dose: 200.0 mg/kg/injection, schedule: Q01DX009 (ip), vehicle: other
  T/C: 90 % of control

## CN(C)CCNC(=Cc1ccc2ccccc2[n+]1C)NCCN(C)C
[4]
  T/C: 97 % of control
[5]
  T/C: 101 % of control

## CC/C(=C(\CC)c1ccc(OC)cc1)c1ccc(OC)cc1
dose: 25.0 mg/kg/injection, schedule: Q01DX009 (ip), vehicle: Klucel (hydroxypropylcellulose) (HPC)
  T/C: 107 % of control
dose: 50.0 mg/kg/injection, schedule: Q01DX009 (ip), vehicle: Klucel (hydroxypropylcellulose) (HPC)
  T/C: 105 % of control
dose: 50.0 mg/kg/injection, schedule: Q01DX009 (ip), vehicle: saline with Tween-80
  T/C: 102 % of control
dose: 100.0 mg/kg/injection, schedule: Q01DX009 (ip), vehicle: Klucel (hydroxypropylcellulose) (HPC)
  T/C: 106 % of control
dose: 100.0 mg/kg/injection, schedule: Q01DX009 (ip), vehicle: saline with Tween-80
  T/C: 98 % of control
dose: 200.0 mg/kg/injection, schedule: Q01DX009 (ip), vehicle: Klucel (hydroxypropylcellulose) (HPC)
  T/C: 97 % of control

## O=c1oc2c(cc1Cl)CCCC2
[1]
  T/C: 96 % of control
[2]
  T/C: 101 % of control
[3]
  T/C: 103 % of control

## CCN1C(NN)=NS(=O)(=O)c2ccccc21
dose: 60.0 mg/kg/injection, schedule: Q01DX005 (ip), vehicle: saline with Tween-80
  T/C: 103 % of control
dose: 120.0 mg/kg/injection, schedule: Q01DX005 (ip), vehicle: saline with Tween-80
  T/C: 106 % of control
dose: 240.0 mg/kg/injection, schedule: Q01DX005 (ip), vehicle: saline with Tween-80
  T/C: 94 % of control

## CC(=O)C1SCC[S+]1C (stereo not given)
dose: 15.0 mg/kg/injection, schedule: Q01DX005 (ip), vehicle: saline
  T/C: 102 % of control
[4]
  T/C: 102 % of control
[5]
  T/C: 99 % of control and 106 % of control and 114 % of control
